# From patent US20040005537A1, “Method of identifying toxic agents using differential gene expression” (priority 2000, published 2004)
# Legend:
# [1] = cited from earlier work
# rat heart tissue = assay: GENECALLING differential gene expression analysis after dosing of serotonin modulating agents; assay type: in vivo, Sprague Dawley rats
# Procedure: Control animals received sterile water or canola oil. The animals were sacrificed 24 hours following the last dose. Liver tissue was dissected from the animals, and total RNA was recovered from the dissected tissue. cDNA was prepared and the resulting samples were processed through using GENECALLING™ differential expression analysis as described in U.S. Pat. No. 5,871,697 and in Shimkets et al., Nature Biotechnology 17:798-803 (1999). The contents of these patents and publications are incorporated herein by reference in their entirety.
# Thousands of gene fragments were initially found to be differentially expressed in rat heart tissue in response to serotonin modulating agents in. Genes fragments whose expression levels were modulated greater than ±1.5-fold were selected for further analysis.
# Column 6 of Table 1, entitled “Function”, lists the type of classification assigned for the protein, based on its function. The 210 single nucleic acid sequences identified herein, are referred to herein as CARDIOTOX 1-210.
smiles,measurement,setting,value
CCNC(C)Cc1cccc(C(F)(F)F)c1 (stereo not shown) [fenfluramine],classification as cardiotoxic or noncardiotoxic serotonin modulating agent,[1]; grouping used to generate the distinguishing gene profiles,cardiotoxic
same,side effect reported in a subset of patients,[1]; patients to which they are administered,valvular heart disease
same,"Effects on Transcription Level: Novel gene fragment, 524 bp, 86% SI to mouse F-box protein FBX6b [AF176526]",rat heart tissue; CARDIOTOX 1,+1.4 fold
same,"Effects on Transcription Level: Novel gene fragment, 306 bp, 91% SI to mouse low density lipoprotein receptor related protein 4 [AB013874]",rat heart tissue; CARDIOTOX 2,−1.1 fold
same,"Effects on Transcription Level: Novel gene fragment, 540 bp, 97% SI to mouse skeletal muscle alpha-actin [X03766]",rat heart tissue; CARDIOTOX 3,+1.3 fold
same,"Effects on Transcription Level: Novel gene fragment, 80 bp",rat heart tissue; CARDIOTOX 4,−1.1 fold
same,"Effects on Transcription Level: Novel gene fragment, 957 bp, 99% SI to kidney injury associated moleculer HW036 [V80591]",rat heart tissue; CARDIOTOX 5,−1.4 fold
same,"Effects on Transcription Level: Novel gene fragment, 282 bp, 85% SI to human KIAA1515 protein [AB040948]",rat heart tissue; CARDIOTOX 6,−1.3 fold
same,"Effects on Transcription Level: Novel gene fragment, 405 bp, 88% SI to human 2-oxoglutarate dehydrogenase [D10523]",rat heart tissue; CARDIOTOX 7,+1.4 fold
same,Effects on Transcription Level: UCP2,"rat heart tissue; CARDIOTOX 8, GenBank AB010743",−1.3 fold
same,Effects on Transcription Level: Plasma membrane Ca2 + ATPase-isoform 1,"rat heart tissue; CARDIOTOX 9, GenBank J03753",−1.3 fold
same,"Effects on Transcription Level: Novel gene fragment, 242 bp, 97% SI to mouse HSP86 heat-shock protein [X16857]",rat heart tissue; CARDIOTOX 10,+1.6 fold
same,"Effects on Transcription Level: Novel gene fragment, 280 bp, 65% SI to human TRF1-interacting, ankyrin-related ADP-ribose polymerase [AF082556]",rat heart tissue; CARDIOTOX 11,+1.6 fold
same,"Effects on Transcription Level: Novel gene fragment, 348 bp, 88% SI to mouse Sec61 protein complex gamma subunit [U11027]",rat heart tissue; CARDIOTOX 12,+1.6 fold
same,"Effects on Transcription Level: Novel gene fragment 553 bp, 93% SI to mouse Sid329 [AB024984]",rat heart tissue; CARDIOTOX 13,+1.5 fold
same,Effects on Transcription Level: Kruppel-like transcription factor,"rat heart tissue; CARDIOTOX 14, GenBank AB020759",+1.7 fold
same,Effects on Transcription Level: Ribosomal protein L3,"rat heart tissue; CARDIOTOX 15, GenBank X62166",+2.3 fold
same,Effects on Transcription Level: Glucose-regulated protein (GRP) 75,"rat heart tissue; CARDIOTOX 16, GenBank S78556",+1.5 fold
same,Effects on Transcription Level: Immunoglobulin heavy chain binding protein (BiP),"rat heart tissue; CARDIOTOX 17, GenBank M14050",+2.0 fold
same,Effects on Transcription Level: Membrane-spannining proteoglycan NG2,"rat heart tissue; CARDIOTOX 18, GenBank X56541",−1.5 fold
same,"Effects on Transcription Level: Novel gene fragment, 1294 bp, 96% SI to mouse Sui 1 (elF) homolog [AF129888]",rat heart tissue; CARDIOTOX 19,+1.6 fold
same,"Effects on Transcription Level: Novel gene fragment, 723 bp, 85% SI to human translation initiation factor elF3 p40 subunit [U54559]",rat heart tissue; CARDIOTOX 20,+1.5 fold
same,"Effects on Transcription Level: Novel gene fragment, 1324 bp, 76% SI to human flavoprotein subunit of complex II [D30648]",rat heart tissue; CARDIOTOX 21,+1.5 fold
same,"Effects on Transcription Level: Novel gene fragment, 852 bp, 81% SI to human vacuolar proton-ATPase subunit M9.2 [Y15286]",rat heart tissue; CARDIOTOX 22,+1.6 fold
same,"Effects on Transcription Level: Novel gene fragment, 178 bp, 91% SI to mouse myosin light chain-2 isoform MLC-2a [S70785]",rat heart tissue; CARDIOTOX 23,+1.5 fold
same,"Effects on Transcription Level: Novel gene fragment, 167 bp, 90% SI to mouse Rab20 [X80332]",rat heart tissue; CARDIOTOX 24,+1.8 fold
same,"Effects on Transcription Level: Novel gene fragment, 1070 bp, 80% SI to human muscle-specific protein [AF249873]",rat heart tissue; CARDIOTOX 25,+1.7 fold
same,"Effects on Transcription Level: Novel gene fragment, 1143 bp, 82% SI to human sarcoma amplified sequence (SAS) [U01160]",rat heart tissue; CARDIOTOX 26,+1.8 fold
same,"Effects on Transcription Level: Novel gene fragment, 74 bp,75% SI to human secreted protein [X30160] (from patent database)/[X97578] (from patent database)/potential cytokine)",rat heart tissue; CARDIOTOX 27,+1.6 fold
same,"Effects on Transcription Level: Novel gene fragment, 408 bp, 90% SI to human CGI-07 protein [AF132941]",rat heart tissue; CARDIOTOX 28,+1.6 fold
same,"Effects on Transcription Level: Novel gene fragment, 618 bp, 95% SI to rat progression related cDNA, ZNPE-120 3′ end partial sequence [patent database X90805]",rat heart tissue; CARDIOTOX 29,+1.6 fold
same,"Effects on Transcription Level: Novel gene fragment, 717 bp",rat heart tissue; CARDIOTOX 30,+1.6 fold
same,"Effects on Transcription Level: Novel gene fragment, 546 bp",rat heart tissue; CARDIOTOX 31,+1.5 fold
same,"Effects on Transcription Level: Novel gene fragment, 920 bp, 91% SI to human HSPC061 [AF161546]",rat heart tissue; CARDIOTOX 32,+1.5 fold
same,"Effects on Transcription Level: Novel gene fragment, 203 bp, 92% SI to rabbit sarcoplasmic reticulum glycoprotein [J04480]",rat heart tissue; CARDIOTOX 33,−1.7 fold
same,"Effects on Transcription Level: Novel gene fragment, 178 bp, 68% SI to mouse IgG receptor (beta-Fc-gamma-RII)[M63159]",rat heart tissue; CARDIOTOX 34,+1.5 fold
same,Effects on Transcription Level: Ribosomal protein L6,"rat heart tissue; CARDIOTOX 35, GenBank X87107",+1.5 fold
same,Effects on Transcription Level: CAP2 protein (adenylyl cyclase-associated protein 2),"rat heart tissue; CARDIOTOX 36, GenBank U31935",+2.0 fold
same,Effects on Transcription Level: Alpha-platelet-derived growth factor receptor,"rat heart tissue; CARDIOTOX 37, GenBank M63837",+1.5 fold
same,Effects on Transcription Level: Rab GD1 alpha protein,"rat heart tissue; CARDIOTOX 38, GenBank X74402",−1.5 fold
same,Effects on Transcription Level: PKC-zeta-interacting protein,"rat heart tissue; CARDIOTOX 39, GenBank Y08355",+1.5 fold
same,Effects on Transcription Level: ERK or MAP kinase,"rat heart tissue; CARDIOTOX 40, GenBank X65198",+1.5 fold
same,Effects on Transcription Level: Peroxisomal multifunctional enzyme type II,"rat heart tissue; CARDIOTOX 41, GenBank U37486",+1.5 fold
same,Effects on Transcription Level: HBP23 (heme-binding protein 23 kDa),"rat heart tissue; CARDIOTOX 42, GenBank D30035",+1.6 fold
same,Effects on Transcription Level: Caveolae-associated protein,"rat heart tissue; CARDIOTOX 43, GenBank U90725",+1.5 fold
same,Effects on Transcription Level: Prenylated rab acceptor 1 (PRA1),"rat heart tissue; CARDIOTOX 44, GenBank AF025506",+1.6 fold
same,"Effects on Transcription Level: Novel gene fragment, 337 bp, 88% SI to rabbit cardiac ryanodine receptor (RyR-2)[U50465]",rat heart tissue; CARDIOTOX 45,−1.6 fold
same,"Effects on Transcription Level: Novel gene fragment, 81 bp, 85% SI to human titin [X90568]",rat heart tissue; CARDIOTOX 46,−1.8 fold
same,"Effects on Transcription Level: Novel gene fragment, 428 bp, 86% SI to human titin [X90568]",rat heart tissue; CARDIOTOX 47,−1.8 fold
same,"Effects on Transcription Level: Novel gene fragment, 374 bp, 88% SI to human titin [X90568]",rat heart tissue; CARDIOTOX 48,−1.8 fold
same,"Effects on Transcription Level: Novel gene fragment, 428 bp, 85% SI to human titin [90568]",rat heart tissue; CARDIOTOX 49,−1.9 fold
same,"Effects on Transcription Level: Novel gene fragment, 1216 bp, 93% SI to mouse mircotubule-associated protein (MAP) 1B protein [AF115776]",rat heart tissue; CARDIOTOX 50,−1.7 fold
same,"Effects on Transcription Level: Novel gene fragment, 1115 bp, 83% SI to human KIAA0549 protein [AB011121]",rat heart tissue; CARDIOTOX 51,−1.8 fold
same,"Effects on Transcription Level: Novel gene fragment, 153 bp",rat heart tissue; CARDIOTOX 52,−1.7 fold
same,"Effects on Transcription Level: Novel gene fragment, 89 bp, 93% SI to human putative glialblastoma cell differentiation-related protein (GBDR1) [AF068195]",rat heart tissue; CARDIOTOX 53,−1.6 fold
same,Effects on Transcription Level: Rho-associated kinase beta,"rat heart tissue; CARDIOTOX 54, GenBank U61266",−1.8 fold
same,Effects on Transcription Level: Adenylate kinase 3,"rat heart tissue; CARDIOTOX 55, GenBank D13062",+1.6 fold
same,Effects on Transcription Level: Amyloid beta-peptide binding protein,"rat heart tissue; CARDIOTOX 56, GenBank AF049878",+1.6 fold
same,Effects on Transcription Level: Mitochondrial adenine nuleotide translocator,"rat heart tissue; CARDIOTOX 57, GenBank D12771",+1.6 fold
same,"Effects on Transcription Level: Novel gene fragment, 710 bp, 94% SI to mouse chromatin structural protein homolog Supt5 hp (Supt5 h)[U88539]",rat heart tissue; CARDIOTOX 58,+3.4 fold
same,"Effects on Transcription Level: Novel gene fragment, 186 bp, 66% SI to human N-acetylglucosaminyltransferase 1 (GlcNAc-TI)[M55621]",rat heart tissue; CARDIOTOX 60,−3.0 fold
same,"Effects on Transcription Level: Novel gene fragment, 238 bp, 95% SI to mouse MAP kinase-activated protein kinase 2 [X76850]",rat heart tissue; CARDIOTOX 61,−2.4 fold
same,"Effects on Transcription Level: Novel gene fragment, 173 bp, 70% SI to G protein-coupled receptor kinase GRK4 [X97568]",rat heart tissue; CARDIOTOX 62,−6.6 fold
same,"Effects on Transcription Level: Novel gene fragment, 133 bp, 77% SI to human apoptosis related protein hSARP3 [patent database: V19114]",rat heart tissue; CARDIOTOX 63,−3.1 fold
same,"Effects on Transcription Level: Novel gene fragment, 477 bp, 98% SI to peroxisomal phytanoyl-CoA hydroxylase (PHYH) [AF121345]",rat heart tissue; CARDIOTOX 64,+4.8 fold
same,"Effects on Transcription Level: Novel gene fragment, 413 bp, 95% SI to mouse dihydrolipoamide dehydrogenase (Dld) [U73445]",rat heart tissue; CARDIOTOX 65,+2.3 fold
same,"Effects on Transcription Level: Novel gene fragment, 726 bp, 76% SI to human succinate dehydrogenase flavoprotein subunit (SDH) [L21936]",rat heart tissue; CARDIOTOX 66,−4.0 fold
same,"Effects on Transcription Level: Novel gene fragment, 440 bp, 92% SI to mouse cytochrome c oxidase Vllc [X52940]",rat heart tissue; CARDIOTOX 67,+4.0 fold
same,"Effects on Transcription Level: Novel gene fragment, 276 bp, 80% SI to human titin [X90568]",rat heart tissue; CARDIOTOX 68,−12.7 fold
same,"Effects on Transcription Level: Novel gene fragment, 149 bp, 70% SI to human titin [X90568]",rat heart tissue; CARDIOTOX 69,−5.6 fold
